Source: paper PMC10568461, “A pilot study of cerebral metabolism and serotonin 5-HT2A receptor occupancy in rats treated with the psychedelic tryptamine DMT in conjunction with the MAO inhibitor harmine” (Frontiers in Pharmacology, 2023)
Where “and” joins values, the source holds several entries; their conditions need not be identical. Equal values may be shown once.

Experiments:
brain glucose metabolism = assay: [^18F]FDG-PET of cerebral glucose metabolism (experiment 1); assay type: in vivo, rat; settings: for [^18F]FDG-PET SUV normalized to whole-brain uptake (SUVglob): 1 mg/kg s.c.; for [^18F]FDG-PET SUV normalized to whole-brain uptake (SUVglob) / [^18F]FDG-PET glucose normalized SUV (SUVgluc): mean (SD)
Description: The dynamic PET recordings were histogrammed into six frames of 5 minutes each, and reconstructed with attenuation, decay, and scatter correction using the OSEM3D/SP-MAP algorithm (2 x OSEM iterations and 18 x MAP iterations) with a matrix size of 128 × 128 pixels, resulting in a final target resolution of 0.8 mm/pixel. Pre-processing of PET scans was performed using PMOD v4.2 (PMOD Technologies LLC, Zurich, Switzerland). The [^18F]FDG images were averaged across the six frames and then converted into standardized uptake values (SUV), whereupon the image was cropped to the head of the animal and automatically co-registered to a standard [^18F]FDG-PET template. We used Schiffer’s atlas ([Schiffer et al., 2006]) for parcellation of bilateral brain regions within the cortico-striato-thalamo-cortical (CSTC) circuit, i.e. bilateral nucleus accumbens (NAc), medial prefrontal cortex (mPFC), orbitofrontal cortex (OFC), hippocampus, striatum, thalamus, visual cortex, cerebellum as a comparator region, and whole brain. We selected these regions from the CSTC circuit based on a conceptual model holding that the thalamus acts as a filter/gatekeeper of sensory information, broadcasting to cortical regions that subserve conscious experience ([Wang et al., 2006]; [McAlonan et al., 2008]). Perturbation of this CSTC circuit is implicated in the action of psychedelic compounds ([Geyer and Vollenweider, 2008]; [Preller et al., 2019]). We scaled individual regional SUV results to the mean blood glucose levels measured during the recording session (SUVgluc) and to the global [^18F]FDG uptake (SUVglob).

MAO-A [1] = biological target: T1, MAO-A (Rattus norvegicus, UniProt P21396); assay: MAO-A inhibition in living brain inferred from cerebral 3-IAA; assay type: in vivo; settings: Experiment 1, harmine 1 mg/kg with DMT; suggested by lower cerebral 3-IAA
T1 sequence (P21396 1-526): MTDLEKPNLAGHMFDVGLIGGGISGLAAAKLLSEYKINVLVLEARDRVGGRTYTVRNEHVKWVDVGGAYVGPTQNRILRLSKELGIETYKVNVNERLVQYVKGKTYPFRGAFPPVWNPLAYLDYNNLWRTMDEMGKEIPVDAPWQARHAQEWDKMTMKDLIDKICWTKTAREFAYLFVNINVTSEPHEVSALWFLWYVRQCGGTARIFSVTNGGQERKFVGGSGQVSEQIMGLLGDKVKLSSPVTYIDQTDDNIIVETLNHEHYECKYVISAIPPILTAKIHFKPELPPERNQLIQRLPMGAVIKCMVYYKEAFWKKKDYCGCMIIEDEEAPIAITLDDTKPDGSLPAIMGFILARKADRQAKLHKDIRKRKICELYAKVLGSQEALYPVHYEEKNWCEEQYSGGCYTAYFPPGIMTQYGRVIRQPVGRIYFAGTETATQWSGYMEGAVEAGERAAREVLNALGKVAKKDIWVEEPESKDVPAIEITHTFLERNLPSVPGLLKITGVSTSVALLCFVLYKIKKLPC

[2] = Brain concentrations of harmine, DMT and metabolites by UHPLC-MS after s.c. harmine and/or DMT; settings: rat, subcutaneous
Description: Groups of (n = 6) rats received either saline, harmine (1 mg/kg), DMT (1 mg/kg), or harmine + DMT (1 mg/kg each) as subcutaneous injections, as indicated in Figure 1.
After 45 min, rats were sacrificed by decapitation, and the brains dissected into cerebellum and frontal cortex samples for radioactivity measurement and chemical analysis, thus 65 min after harmine + DMT.

[3] = set-up: method as in ref Guan et al., 2001; Li et al., 2017; Wang et al., 2019; Brito-da-Costa et al., 2020; settings: rats, 0.5 to 3.3 mg/kg i.v. and 20–40 mg/kg p.o.; ref Guan et al., 2001; Li et al., 2017; Wang et al., 2019; Brito-da-Costa et al., 2020; cited from earlier work
rats = assay: Behavioural observations in treated rats; assay type: in vivo, rat; settings: not systematically assessed
MAO-A [4] = biological target: T1, MAO-A; assay: Apparent affinity at MAO binding sites in living brain; assay type: in vivo; settings: extrapolated from the 150-fold in vitro/in vivo difference of [^18F]fluoroethyl-harmol; read-out: Predicted apparent affinity for MAO-A in living brain

COc1ccc2c(c1)[nH]c1c(C)nccc12 [harmine]
Qualitative effect on brain [^18F]FDG uptake (SUVglob maps) (brain glucose metabolism; 1 mg/kg, separately or in combination): no conspicuous effects | Thalamus SUVglob versus vehicle group (Dunn's post hoc test) (brain glucose metabolism; 1 mg/kg, Z = −2.66, p = 0.047): significantly different from the vehicle group | [^18F]FDG-PET SUV normalized to whole-brain uptake (SUVglob) (brain glucose metabolism; NAc): 6.23 (0.18) SUV | [^18F]FDG-PET glucose normalized SUV (SUVgluc) (brain glucose metabolism; NAc, 1 mg/kg): 6.4 (1.05) SUV | [^18F]FDG-PET SUV normalized to whole-brain uptake (SUVglob) (brain glucose metabolism; OFC): 6.5 (0.44) SUV | [^18F]FDG-PET glucose normalized SUV (SUVgluc) (brain glucose metabolism; OFC, 1 mg/kg): 6.71 (1.33) SUV | [^18F]FDG-PET SUV normalized to whole-brain uptake (SUVglob) (brain glucose metabolism; cerebellum): 4.52 (0.15) SUV | [^18F]FDG-PET glucose normalized SUV (SUVgluc) (brain glucose metabolism; cerebellum, 1 mg/kg): 4.62 (0.67) SUV | [^18F]FDG-PET SUV normalized to whole-brain uptake (SUVglob) (brain glucose metabolism; hippocampus): 5.32 (0.23) SUV | [^18F]FDG-PET glucose normalized SUV (SUVgluc) (brain glucose metabolism; hippocampus, 1 mg/kg): 5.44 (0.77) SUV | [^18F]FDG-PET SUV normalized to whole-brain uptake (SUVglob) (brain glucose metabolism; mPFC): 7.09 (0.32) SUV | [^18F]FDG-PET glucose normalized SUV (SUVgluc) (brain glucose metabolism; mPFC, 1 mg/kg): 7.28 (1.18) SUV | [^18F]FDG-PET SUV normalized to whole-brain uptake (SUVglob) (brain glucose metabolism; striatum): 6.99 (0.12) SUV | [^18F]FDG-PET glucose normalized SUV (SUVgluc) (brain glucose metabolism; striatum, 1 mg/kg): 7.19 (1.21) SUV | [^18F]FDG-PET SUV normalized to whole-brain uptake (SUVglob) (brain glucose metabolism; thalamus): 6.54 (0.13) SUV | [^18F]FDG-PET glucose normalized SUV (SUVgluc) (brain glucose metabolism; thalamus, 1 mg/kg): 6.73 (1.15) SUV | [^18F]FDG-PET SUV normalized to whole-brain uptake (SUVglob) (brain glucose metabolism; visual cortex): 6.1 (0.24) SUV | [^18F]FDG-PET glucose normalized SUV (SUVgluc) (brain glucose metabolism; visual cortex, 1 mg/kg): 6.29 (1.15) SUV | [^18F]FDG-PET glucose normalized SUV (SUVgluc) (brain glucose metabolism; whole brain, 1 mg/kg): 5.69 (0.93) SUV | Inhibition of MAO-A in living brain (MAO-A [1]): 50% | concentration at 100 min ([2]; brain, 1 mg/kg, Brain harmine concentration, at 100 min after treatment with 1 mg/kg): ~1 µM | concentration at 95 min ([2]; brain, 1 mg/kg, Mean concentration in brain tissue, Experiment 1, after harmine alone (1 mg/kg)): 116 ng/g and 550 nM | concentration at 70 min ([2]; brain, 3 mg/kg, Brain harmine concentration, at 70 min after the higher dose (3 mg/kg)): ~2 µM | concentration at 65 min ([2]; brain, Mean brain concentration, Experiment 2, harmine + DMT (3 mg/kg each)): 424 ng/g and 2 µM | concentration at 95 min ([2]; brain, Mean concentration in brain tissue, Experiment 1, after harmine + DMT (1 mg/kg each)): 257 ng/g and 1.21 µM | concentration at 95 min ([2]; cerebellum, 1 mg/kg, Brain concentration, Experiment 1, cerebellum, group DMT (1 mg/kg s.c.), 95 min, mean (SD)): 13.6 ng/g | concentration at 95 min ([2]; cerebellum, Brain concentration, Experiment 1, cerebellum, group Har (harmine 1 mg/kg s.c.), 95 min after drug, mean (SD)): 104 ng/g | concentration at 95 min ([2]; cerebellum, Brain concentration, Experiment 1, cerebellum, group Har + DMT (1 mg/kg each s.c.), 95 min, mean (SD)): 189 ng/g | concentration at 65 min ([2]; cerebellum, Brain concentration, Experiment 2, cerebellum, group Har + DMT (3 mg/kg each s.c.), 65 min, mean (SD)): 412 ng/g | concentration at 95 min ([2]; frontal cortex, 1 mg/kg, Brain concentration, Experiment 1, frontal cortex, group DMT (1 mg/kg s.c.), 95 min, mean (SD)): 20.1 ng/g | concentration at 95 min ([2]; frontal cortex, Brain concentration, Experiment 1, frontal cortex, group Har (harmine 1 mg/kg s.c.), 95 min, mean (SD)): 128 ng/g | concentration at 95 min ([2]; frontal cortex, Brain concentration, Experiment 1, frontal cortex, group Har + DMT (1 mg/kg each s.c.), 95 min, mean (SD)): 326 ng/g | concentration at 65 min ([2]; frontal cortex, Brain concentration, Experiment 2, frontal cortex, group Har + DMT (3 mg/kg each s.c.), 65 min, mean (SD)): 436 ng/g | Plasma half-life [3]: 3.5 h | Behaviour and anesthesia requirement of treated rats (rats): calmer and needed less isoflurane to sustain anesthesia | Kd (MAO-A [4]): ~0.3 µM
